Assays:
DHR23α = target: T1, DHR23α (Drosophila melanogaster, UniProt P34021); assay: DHR23α transactivation of EcRE (Ec4M-77CO) CAT reporter in transfected human 293 cells; assay type: cell-based; settings: pRSV.DHR23α + pEc4M-77CO (EcRE) CAT reporter, ligand 1 µM, 48 hrs
T1 construct: To isolate the full-length DHR23α clones; expressed in transfected cells; host or cells: human 293 cells
T1 sequence (P34021 1-878): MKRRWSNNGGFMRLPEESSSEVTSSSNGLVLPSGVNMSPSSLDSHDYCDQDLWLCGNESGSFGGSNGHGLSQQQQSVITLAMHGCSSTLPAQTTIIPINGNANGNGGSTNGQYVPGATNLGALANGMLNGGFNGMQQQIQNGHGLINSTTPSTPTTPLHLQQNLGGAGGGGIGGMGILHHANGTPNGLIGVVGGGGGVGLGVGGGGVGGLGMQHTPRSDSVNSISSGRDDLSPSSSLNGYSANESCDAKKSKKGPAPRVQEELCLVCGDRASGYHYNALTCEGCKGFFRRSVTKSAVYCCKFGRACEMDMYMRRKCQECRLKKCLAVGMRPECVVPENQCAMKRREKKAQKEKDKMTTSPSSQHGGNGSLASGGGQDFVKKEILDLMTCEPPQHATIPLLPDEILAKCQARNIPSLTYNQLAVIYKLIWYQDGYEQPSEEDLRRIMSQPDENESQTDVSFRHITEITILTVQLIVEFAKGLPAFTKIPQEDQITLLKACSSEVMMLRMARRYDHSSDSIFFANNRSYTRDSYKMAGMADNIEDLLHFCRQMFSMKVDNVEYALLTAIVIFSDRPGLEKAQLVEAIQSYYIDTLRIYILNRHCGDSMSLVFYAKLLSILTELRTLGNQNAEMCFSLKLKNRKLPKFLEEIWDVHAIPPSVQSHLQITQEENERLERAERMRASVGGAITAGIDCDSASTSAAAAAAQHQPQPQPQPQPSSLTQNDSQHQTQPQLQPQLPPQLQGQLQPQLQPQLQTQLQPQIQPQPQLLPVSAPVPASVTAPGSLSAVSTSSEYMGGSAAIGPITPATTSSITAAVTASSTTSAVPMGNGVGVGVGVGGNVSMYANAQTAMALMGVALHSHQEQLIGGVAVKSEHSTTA
T1 sequence (P19793 1-462 partner): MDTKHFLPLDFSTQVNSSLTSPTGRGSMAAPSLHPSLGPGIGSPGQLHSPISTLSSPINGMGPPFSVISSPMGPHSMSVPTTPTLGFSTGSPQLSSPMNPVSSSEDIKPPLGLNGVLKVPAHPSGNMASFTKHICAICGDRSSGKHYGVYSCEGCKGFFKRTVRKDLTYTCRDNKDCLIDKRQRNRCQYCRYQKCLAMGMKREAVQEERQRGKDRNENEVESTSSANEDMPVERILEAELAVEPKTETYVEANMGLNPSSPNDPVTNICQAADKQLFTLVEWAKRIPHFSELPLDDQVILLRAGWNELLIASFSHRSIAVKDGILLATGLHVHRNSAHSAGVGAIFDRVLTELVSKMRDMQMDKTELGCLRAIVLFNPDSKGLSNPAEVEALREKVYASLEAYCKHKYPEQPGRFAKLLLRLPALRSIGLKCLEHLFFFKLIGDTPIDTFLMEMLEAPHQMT
Protocol: Figure. 2. […] Human 293 cells were cotransfected with 2.5 µg of the expression plasmid pRSV.DHR23α or the parental expression plasmid pRSV (Control) and 0.5 µgs of the reporter plasmid pEc4M-77CO (EcRE) or pG4M-77CO (GRE). As a control for transfection efficiency, 0.5 µgs of the control plasmid pRSV.hGH was included in the transfection mixture. After transfection, cells were treated without (-) or with alpha-ecdysone (alpha), 20-OH ecdysone (20-OH), polypodine B (ppB), ponasterone A (ponA) or muristeroine A (murA). CAT extracts were harvested 48 hrs after transfection and assayed. The values were normalized to the expression of hGH and the average values of three independent experiments are shown. The "fold induction" represents the level of expression of the reporter gene in cells incubated with hormone divided by the expression of that reporter gene in extracts from cells incubated in the absence of added ligand.
I determined whether DHR23α could function in mammalian cells treated with ecdysteroids to enhance the transcription of a reporter gene containing EcREs linked to the murine mammary tumor virus (MTV) promoter and chloramphenicol acetyltransferase (CAT) gene. Human 293 cells were cotransfected with an RSV-based expression vector that encodes DHR23a and the reporter gene Ec4M-77CO that contains 4 copies of an ecdysone response element (EcRE) from the Drosophila HSP27 promoter (G. Riddihough and H. R. B. Pelham, EMBO J. 6, 3729 [1987]) linked to an MTV promoter-CAT construct.
Human 293 cells were cotransfected with 2.5 µg of the expression plasmid pRSV.DHR23α or the parental expression plasmid pRSV (Control) and 0.5 µgs of the reporter plasmid pEc4M-77CO (EcRE) or pG4M-77CO (GRE). As a control for transfection efficiency, 0.5 µgs of the control plasmid pRSV.hGH was included in the transfection mixture. After transfection, cells were treated without (-) or with alpha-ecdysone (alpha), 20-OH ecdysone (20-OH), polypodine B (ppB), ponasterone A (ponA) or muristeroine A (murA). All candidate ligands were added at a concentration of 1 µM. CAT extracts were harvested 48 hrs after transfection, and assays were performed as described (D. R. Cavener, Nucl. Acids Res. 15, 1353-1361 [1987]). The values were normalized to the expression of hGH and the average values of three independent experiments are shown in Figure 2. The "fold induction" represents the level of expression of the reporter gene in cells incubated with hormone divided by the expression of that reporter gene in extracts from cells incubated in the absence of added ligand.
Cells were transfected with the DHR23α expression vector and Ec4M-77CO reporter gene and treated without (-) or with the following hormones (1 µM): muristerone A (mur A) dexamethasone (Dex) 17β-estradiol (E2), aldosterone (Aldo), corticosterone (Cort) hydroxycorticosterone (OH-Cort) thyroid hormone (T3), promegestone (Promeg) or 1,25-dihydroxy vitamin D3 (VD3). Reporter gene activity was determined as described above for Figure 2.

GGEc = target: T2, GGEc (Drosophila melanogaster, UniProt P34021); assay: Induction of GRE reporter G4M-77CO by chimeric receptor GGEc in 293 cells; assay type: cell-based; settings: GRE reporter G4M-77CO
T2 construct: expressed in transfected cells; host or cells: 293 cells
T2 sequence (P34021 329-878): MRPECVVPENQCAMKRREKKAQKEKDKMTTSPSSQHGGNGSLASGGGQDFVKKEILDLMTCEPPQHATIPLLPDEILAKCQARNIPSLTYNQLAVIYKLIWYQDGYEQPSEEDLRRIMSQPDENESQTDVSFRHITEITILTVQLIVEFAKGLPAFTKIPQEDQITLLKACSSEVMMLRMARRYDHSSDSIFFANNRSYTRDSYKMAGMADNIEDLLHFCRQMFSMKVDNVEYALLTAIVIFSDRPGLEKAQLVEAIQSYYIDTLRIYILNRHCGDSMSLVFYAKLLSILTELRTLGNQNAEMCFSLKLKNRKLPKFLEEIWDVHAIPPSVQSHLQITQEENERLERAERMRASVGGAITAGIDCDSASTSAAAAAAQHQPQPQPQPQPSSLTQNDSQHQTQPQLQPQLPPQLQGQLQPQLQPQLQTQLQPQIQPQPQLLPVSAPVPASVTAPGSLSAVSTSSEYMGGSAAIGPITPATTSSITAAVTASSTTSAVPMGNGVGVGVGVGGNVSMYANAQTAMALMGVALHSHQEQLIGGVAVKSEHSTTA
Source text: I choose to determine if the ligand-binding domain of DHR23a could be used to regulate the DNA-binding and transactivation domains of the mammalian glucocorticoid receptor for the following reasons. First, in contrast to DHR23α, high affinity DNA-binding sites for the GR have been identified (M. Beato, Cell 56, 335 [1989]) and reporter genes containing these sites are very strongly regulated. Thus, the sensitivity of our assays could be increased. Secondly, these chimeric receptors could be utilized to selectively regulate endogenous genes in mammalian cells in response to ecdysteroids. I constructed a chimeric gene, GGEc, in which the sequences encoding the ligand-binding domain of the GR were replaced with that of DHR23α (Fig. 4A). […] However, expression of the GRE-containing reporter gene was induced more than 700 fold by GGEc in muristerone-treated cells.

drosophila cell lines = settings: cited from earlier work
GGG = target: T3, GGG (Rattus norvegicus, UniProt P06536); assay: Induction of GRE reporter G4M-77CO by GGG (glucocorticoid receptor) in 293 cells; settings: normalized to hGH, SD in parentheses, 2880 min
T3 sequence (P06536 1-795): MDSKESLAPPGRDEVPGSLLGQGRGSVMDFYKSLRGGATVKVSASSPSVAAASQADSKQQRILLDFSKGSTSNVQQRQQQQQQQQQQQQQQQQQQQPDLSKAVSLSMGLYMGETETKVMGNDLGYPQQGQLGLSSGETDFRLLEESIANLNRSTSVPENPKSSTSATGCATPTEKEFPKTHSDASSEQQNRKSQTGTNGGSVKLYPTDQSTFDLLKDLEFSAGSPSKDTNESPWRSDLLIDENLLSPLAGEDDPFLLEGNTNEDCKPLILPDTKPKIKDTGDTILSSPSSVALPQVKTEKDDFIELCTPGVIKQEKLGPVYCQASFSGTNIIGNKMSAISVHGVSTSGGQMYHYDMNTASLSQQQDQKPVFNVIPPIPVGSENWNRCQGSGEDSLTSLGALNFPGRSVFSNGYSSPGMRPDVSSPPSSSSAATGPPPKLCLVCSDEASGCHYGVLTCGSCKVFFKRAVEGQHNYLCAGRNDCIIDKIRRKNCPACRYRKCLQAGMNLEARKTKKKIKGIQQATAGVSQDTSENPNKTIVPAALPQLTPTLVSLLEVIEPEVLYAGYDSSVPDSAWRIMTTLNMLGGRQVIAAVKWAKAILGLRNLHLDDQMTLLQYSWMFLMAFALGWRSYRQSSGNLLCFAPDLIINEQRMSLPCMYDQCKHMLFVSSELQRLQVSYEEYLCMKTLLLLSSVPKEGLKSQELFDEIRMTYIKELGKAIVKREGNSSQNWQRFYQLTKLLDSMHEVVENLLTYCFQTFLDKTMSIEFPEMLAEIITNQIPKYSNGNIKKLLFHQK

agonist for DHR23α in mammalian cells (expression of the reporter gene) (DHR23α; 1 µM)	Structure (SMILES)	agonist for DHR23α in mammalian cells (expression of the reporter gene) (DHR23α)	relative efficacies of ecdysteroids as agonists for the chimeric receptor (GGEc)	agonist activity in drosophila cell lines (drosophila cell lines)	fold induction (GGG) [fold]
inactive	CC(C)(O)CC[C@@H](O)[C@](C)(O)[C@H]1CC[C@@]2(O)C3=CC(=O)[C@@H]4C[C@@H](O)[C@@H](O)C[C@]4(C)[C@H]3CC[C@]12C [20-OH ecdysone]	Neither α-ecdysone, 20-OH ecdysone, nor polypodine B acted as agonists	neither α-ecdysone, 20-OH ecdysone or polypodine B acted as agonists	agonists	–
–	C[C@@H]1C[C@H]2[C@@H]3CCC4=CC(=O)C=C[C@]4(C)[C@@]3(F)[C@@H](O)C[C@]2(C)[C@@]1(O)C(=O)CO [dexamethasone]	–	–	–	347
–	CC(C)(O)CC[C@@H](O)[C@](C)(O)[C@H]1CC[C@@]2(O)C3=CC(=O)[C@]4(O)C[C@@H](O)[C@@H](O)C[C@]4(C)[C@H]3CC[C@]12C [polypodine B]	Neither α-ecdysone, 20-OH ecdysone, nor polypodine B acted as agonists	neither α-ecdysone, 20-OH ecdysone or polypodine B acted as agonists	agonists	–
–	CC(C)CC[C@@H](O)[C@](C)(O)[C@H]1CC[C@@]2(O)C3=CC(=O)[C@@H]4C[C@@H](O)[C@@H](O)C[C@]4(C)[C@H]3CC[C@]12C [ponasterone A]	weak agonist	weak	–	–
–	C[C@H]([C@H](O)CCC(C)(C)O)[C@H]1CC[C@@]2(O)C3=CC(=O)[C@@H]4C[C@@H](O)[C@@H](O)C[C@]4(C)[C@H]3CC[C@]12C [α-ecdysone]	Neither α-ecdysone, 20-OH ecdysone, nor polypodine B acted as agonists	neither α-ecdysone, 20-OH ecdysone or polypodine B acted as agonists	–	–
